“And” between values parts separate entries of the source, which are not always exact repeats. Equal entries are not always repeated.
What was measured:
HepG2 cells = test: Cytotoxicity, XTT cell viability assay; format: cell-based, human; conditions: 24 h
Description: HepG2 cell line was purchased from American Type Culture Collection. The cells were grown in Dulbecco’s Modified Eagle’s Medium (DMEM) with 4.5‰ glucose, supplemented with 10% (v/v) fetal bovine serum, 100 units/mL penicillin, and 100 µg/mL streptomycin (complete medium). HepG2 cells were maintained at 37 °C in a 5% carbon dioxide incubator and were periodically sub-cultivated.
To determine the cytotoxic concentration of the synthesized oxidovanadium(V) complexes and V^IVOSO4•3H2O, HepG2 cells were incubated with increasing molar concentrations (1 × 10^−5 ÷ 3 × 10^−4 M) of compounds.
HepG2 cells (1.5 × 10^4 cells/mL) were seeded in complete medium on a 96-well cell culture plate and were incubated at 37 b0C, as previously described. […] Control cells were represented by cells exposed to free-complete medium and medium supplemented with 0.15% DMSO. The cytotoxicity of tested compounds on the HepG2 cell line was assessed by the 2, 3-bis-(2-methoxy-4-nitro-5-sulfophenyl)-2H-tetrazolium-5-carboxanilide) (XTT) cell viability assay. The method is based on the reduction of XTT, in the presence of phenazine methosulfate, to a water-soluble orange formazan derivative. The absorbance of the sample, due to the intensity of the orange color, which is proportional to the number of viable cells, was recorded at 450 nm using the Tecan Infinite M200Pro spectrophotometer.

[1] = molecular target: T1, bovine serum albumin (BSA) (Bos taurus, UniProt P02769); test: Fluorescence quenching of serum albumin (Stern–Volmer); format: binding; conditions: for decrease of BSA fluorescence intensity: highest tested concentration (2.5 × 10^−5 M), 2 × 10^−6 M BSA, PBS pH 7.4, vs free BSA and BSA with DMSO; for Stern–Volmer constant KSV: BSA 2 × 10^−6 M, PBS pH 7.4, emission 347 nm; for collision quenching constant Kq (Kq = Ksv/τ0): τ0 = 10^−8 s
T1 construct: α-Amylase from porcine pancreas, bovine serum albumin (BSA); purchased SIGMA-Aldrich (Merck KGaA, Darmstadt, Germany)
Description: The capacity of the oxidovanadium(V) compounds to bind to bovine serum albumin (BSA) was monitored by fluorescence quenching assay. A solution of 2 × 10^−6 M BSA in PBS, pH 7.4, was incubated for 2 h at 37 b0C with each vanadium-based compound or V^IVOSO4•3H2O at increasing molar concentrations (1 × 10^−6 ÷ 2.5 × 10^−5 M) or with 0.025% DMSO (negative control). The samples were excited at 295 nm and the emission spectra of all BSA solutions were recorded in the 300 ÷ 450 nm range using a JASCO FP-750 spectrofluorometer. The final spectrum was the average of three recordings measured at a scanning speed of 250 nm/minute, with an excitation and emission bandwidth of 5 nm. […] In addition, by applying the Stern–Volmer equation [23], the mechanism by which the complexes bind to BSA was investigated as it is described in the Supplementary material.
The Stern–Volmer e quation
The Stern–Vol mer equation [1] is:
I0/I= 1+ Kqτ0[Q] = 1 + Ksv[Q], where: I0 = the fluor escence intensities of fr ee BS A solution at 347 nm, I = the fluorescence intensities of BS A solution at 347 nm in the presence of vanadium […]
[Q] = the concentration of vanadium co mplexes, τ0 = the fluorescence l ifetime of the biopolymer (10-8 s), Kq = the coll isi on quenching constant;
Ksv = the Stern-Volmer constant.
Stern–Vol mer plots of the B SA fluorescence quenching in t he prese nce of each compou nd are represented in Fig. S4, together with the ir linear best fit in which y = I0/I, x = [Q], a = slope of the li ne, […]
The fluorescence intensitie s are the average of three recordings measured at a scanning speed of 250 nm/min, with an excitation and emissio n bandwidth of 5 nm.

insulin receptor (INS R) = test: Quantification of phosphorylated insulin receptor by immunoblotting in HepG2 cells; format: cell-based, human; conditions: 10^−7 M insulin
Description: To investigate the effect of oxidovanadium(V) complexes on insulin receptor (INS R) phosphorylation, HepG2 cells (1.0 × 10^5 cells/mL) were treated with 2.5 × 10^−5 M oxidovanadium(V) compounds, V^IVOSO4•3H2O, and 10^−7 M insulin (positive control) for 3 and 24 h, respectively. As negative controls, cells exposed to free-complete medium (negative control for treatment with V^IVOSO4•3H2O and insulin) and cells exposed to 0.0125% DMSO (negative control for treatment with complexes) were used.
After cell lysis, 50 µg of total protein was denatured by adding 1/5th volume of Laemmli’s buffer 6× (15% SDS, 0.01% bromophenol blue, 74% glycerol, 7.5 × 10^−2 M Tris, pH 6.8, 1/8th volume of 2-mercaptoethanol) followed by heating at 95 °C for 5 min. […]
The separated proteins were transferred (using a Trans-Blot Semi-Dry transfer cell, Bio-Rad) to a nitrocellulose membrane (0.45 µm, Bio-Rad), blocked with 1% BSA for 1 hour, and incubated overnight with the primary antibody: Mouse anti-insulin receptor-β chain (INS R-β) (1:500, Santa Cruz Biotechnology cat. No. sc-57342), rabbit anti-phosphorylated INS R-Y1162/3 (pINS R, 1:400, R&D Systems, Minneapolis, MN, USA cat. No. AF2507) and mouse anti-β-actin (1/2000, Bio-Rad cat. no. MCA5775GA). […] The data were expressed as the mean ± SD of two individual experiments performed in duplicate.

[2] = Solution stability over time in PBS by UV-Vis spectrophotometry; format: physicochemical; conditions: for decrease in the intensity of λmax: 2 × 10^−4 M in PBS pH 7.4, 37 °C; for stability in PBS: physiological pH (7.4), 37 °C
Description: Electronic absorption spectra for the 2 × 10^−4 M solution of the four oxidovanadium(V) complexes in PBS at pH 7.4 were recorded outright on the prepared solutions (designated as T 0 h in the histograms), after the preparation at 1 h (T 1 h), 3 h (T 3 h), 6 h (T 6 h), 9 h (T 9 h), and 24 h (T 24 h), respectively. The prepared solutions were incubated at 37 °C, and the readings were performed over the entire 500 ÷ 230 nm range using a microplate reader spectrophotometer TECAN Infinite M200Pro and a 96-well UV micro test plate. The data were expressed as the average ± SD of three independent measurements.

[3] = molecular target: T2, α-Amylase from porcine pancreas (Sus scrofa, UniProt P00690); test: Inhibition of the α-amylase activity (DNS/starch); format: biochemical; conditions: 1.8 × 10^−2 and 2.0 × 10^−2 M, compared to DMSO
T2 construct: α-Amylase from porcine pancreas, bovine serum albumin (BSA); purchased SIGMA-Aldrich (Merck KGaA, Darmstadt, Germany); host or cells: porcine pancreas
T2 sequence (P00690 16-511): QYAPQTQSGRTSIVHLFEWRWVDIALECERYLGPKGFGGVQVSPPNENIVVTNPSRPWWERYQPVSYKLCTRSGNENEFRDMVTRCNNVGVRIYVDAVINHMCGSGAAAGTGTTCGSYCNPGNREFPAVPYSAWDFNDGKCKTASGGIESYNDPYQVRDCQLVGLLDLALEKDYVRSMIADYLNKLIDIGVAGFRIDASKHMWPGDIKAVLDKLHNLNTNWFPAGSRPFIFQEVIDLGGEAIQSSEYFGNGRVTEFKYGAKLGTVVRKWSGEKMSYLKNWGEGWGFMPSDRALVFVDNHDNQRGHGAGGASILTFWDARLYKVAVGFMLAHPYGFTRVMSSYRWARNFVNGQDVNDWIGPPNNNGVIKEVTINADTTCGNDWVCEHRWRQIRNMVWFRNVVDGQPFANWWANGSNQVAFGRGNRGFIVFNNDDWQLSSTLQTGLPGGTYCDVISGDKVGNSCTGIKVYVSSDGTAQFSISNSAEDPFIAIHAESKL
Description: The capacity of the obtained complexes to inhibit pancreatic α-amylase activity in vitro was analyzed using a slightly modified procedure of the one described by Apostolidis and Lee. Thus, 100 µL solution of complexes (1.8 ÷ 2.5 × 10^−2 M), 2.5 × 10^−2 M V^IVOSO4•3H2O, 2.5 × 10^−2 M acarbose (positive control) and 12.5% DMSO (negative control) in reaction buffer (2 × 10^−2 M sodium phosphate, pH 6.9 with 6 × 10^−3 M sodium chloride) were pre-exposed to 100 µL of 20 units/mL α-amylase in reaction buffer for 10 min at room temperature. Then, 100 µL of 1% starch solution in reaction buffer were added and the samples were incubated at room temperature for 10 min. The reaction was stopped with 200 µL of 3, 5-dinitrosalicylic acid (DNS). The samples were heated at 90 ÷ 95 °C for 10 min and then left to cool down at room temperature. The reaction mixture was further diluted with 4 mL of distilled water. As a control for the inhibitory effect of acarbose, a sample containing starch and enzyme was used. The yellow/orange color intensity was measured using the microplate reader TECAN Infinite M200Pro at 540 nm. The experiment was performed in triplicate. The blank (sample without starch and enzyme) absorbance was subtracted from the absorbance of all samples and the activity of α-amylase was expressed as % of DMSO (negative control).

[4] = ratio of BSA quenching constants

T1 sequence (P02769 25-607): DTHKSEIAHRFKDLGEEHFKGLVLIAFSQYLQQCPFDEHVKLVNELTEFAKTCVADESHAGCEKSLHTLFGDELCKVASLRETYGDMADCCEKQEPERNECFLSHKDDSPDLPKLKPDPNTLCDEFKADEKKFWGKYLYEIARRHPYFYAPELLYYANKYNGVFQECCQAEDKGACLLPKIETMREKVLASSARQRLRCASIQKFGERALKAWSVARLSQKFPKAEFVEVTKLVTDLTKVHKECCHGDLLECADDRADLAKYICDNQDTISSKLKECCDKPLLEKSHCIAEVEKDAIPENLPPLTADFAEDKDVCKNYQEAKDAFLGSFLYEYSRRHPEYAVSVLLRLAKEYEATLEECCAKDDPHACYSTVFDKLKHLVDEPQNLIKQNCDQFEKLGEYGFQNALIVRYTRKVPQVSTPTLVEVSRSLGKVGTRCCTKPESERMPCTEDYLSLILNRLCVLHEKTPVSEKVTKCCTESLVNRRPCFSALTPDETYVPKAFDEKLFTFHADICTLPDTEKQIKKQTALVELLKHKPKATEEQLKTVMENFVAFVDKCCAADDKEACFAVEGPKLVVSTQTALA

O.O.O.O=S(=O)([O-])[O-].[O]=[V+2] [V^IVOSO4•3H2O, reference compound]
reduction of HepG2 viability (HepG2 cells; highest concentration (3 × 10^−4 M), compared to control cells): 34% | decrease of BSA fluorescence intensity [1]: does not reduce the fluorescence intensity of BSA

insulin: human recombinant insulin, positive control for INS R phosphorylation
increase of INS R phosphorylation (insulin receptor (INS R); 3 h, HepG2, compared to cells exposed to free-complete medium): about 80% | INS R phosphorylation (insulin receptor (INS R); 24 h, HepG2, compared to control cells): reduced and insignificant

CO.CO.COc1cccc2c1[O][V](=[O])([O][V]1(=[O])[O]C(=O)[C@@H](C(C)C)N=Cc3cccc(OC)c3[O]1)[O]C(=O)[C@@H](C(C)C)N=C2 (stereo partly shown) [2a, [{V^VO(R-vanval)(CH3OH)}2(μ2-O)]]
decrease in the intensity of λmax ([2]; 1 h vs T 0 h): less than 10% | decrease in the intensity of λmax ([2]; 3 h vs T 0 h): less than 20% | decrease in the intensity of λmax ([2]; 6 h vs T 0 h): ~20% | decrease in the intensity of λmax ([2]; 9 h vs T 0 h): ~30% | decrease in the intensity of λmax ([2]; 24 h vs T 0 h): ~30% | stability in PBS [2]: stable in PBS at physiological pH and temperature for up to three hours | increase of α-amylase enzyme activity [3]: 35% | Stern–Volmer constant KSV [1]: 171800 M⁻¹ | decrease of BSA fluorescence intensity [1]: ~80% | Kq(2a)/Kq(1a) [1, 4]: 2 and 2.12 | Kq(2a)/Kq(2b) [1, 4]: 0.69 | collision quenching constant Kq (Kq = Ksv/τ0) [1]: 1.718e+13 M⁻¹ s⁻¹

N.N.[Cl][Pt][Cl] [cisplatin]
reduction of HepG2 viability (HepG2 cells; 1 × 10^−5 M, compared to DMSO treated cells): 44%

CC(C)[C@H](N=Cc1ccccc1[O-])C(=O)[O-].CC(C)[C@H](N=Cc1ccccc1[O-])C(=O)[O-].O.[O]=[V+2][O][V+2]=[O] [1b, [{V^VO(S-salval)(H2O)}(μ2-O){V^VO(S-salval)}]]
decrease in the intensity of λmax ([2]; 1 h vs T 0 h): about 10% | decrease in the intensity of λmax ([2]; 3 h vs T 0 h): about 25% | decrease in the intensity of λmax ([2]; 6 h vs T 0 h): about 40% | decrease in the intensity of λmax ([2]; 9 h vs T 0 h): about 50% | decrease in the intensity of λmax ([2]; 24 h vs T 0 h): about 70% | stability in PBS [2]: stable in PBS at physiological pH and temperature for up to three hours | inhibitory effect on α-amylase activity [3]: more than 18% | Stern–Volmer constant KSV [1]: 60100 M⁻¹ | decrease of BSA fluorescence intensity [1]: about 60% | collision quenching constant Kq (Kq = Ksv/τ0) [1]: 6.01e+12 M⁻¹ s⁻¹

CC(C)[C@H]1N=Cc2ccccc2[O][V](=[O])([O][V]2(=[O])[O]C(=O)[C@@H](C(C)C)N=Cc3ccccc3[O]2)[O]C1=O.O (stereo partly shown) [1a, [{V^VO(R-salval)(H2O)}(μ2-O){V^VO(R-salval)}]]
decrease in the intensity of λmax ([2]; 1 h vs T 0 h): about 10% | decrease in the intensity of λmax ([2]; 3 h vs T 0 h): about 25% | decrease in the intensity of λmax ([2]; 6 h vs T 0 h): about 40% | decrease in the intensity of λmax ([2]; 9 h vs T 0 h): about 50% | decrease in the intensity of λmax ([2]; 24 h vs T 0 h): about 70% | stability in PBS [2]: stable in PBS at physiological pH and temperature for up to three hours | inhibitory effect on α-amylase activity [3]: more than 18% | Stern–Volmer constant KSV [1]: 80700 M⁻¹ | decrease of BSA fluorescence intensity [1]: about 60% | Kq(1a)/Kq(1b) [1, 4]: 1.34 | collision quenching constant Kq (Kq = Ksv/τ0) [1]: 8.07e+12 M⁻¹ s⁻¹

CO.CO.COc1cccc(C=N[C@H](C(=O)[O-])C(C)C)c1[O-].COc1cccc(C=N[C@H](C(=O)[O-])C(C)C)c1[O-].[O]=[V+2][O][V+2]=[O] [2b, [{V^VO(S-vanval)(CH3OH)}2(μ2-O)]]
decrease in the intensity of λmax ([2]; 1 h vs T 0 h): less than 10% | decrease in the intensity of λmax ([2]; 3 h vs T 0 h): less than 20% | decrease in the intensity of λmax ([2]; 6 h vs T 0 h): ~20% | decrease in the intensity of λmax ([2]; 9 h vs T 0 h): ~30% | decrease in the intensity of λmax ([2]; 24 h vs T 0 h): ~30% | stability in PBS [2]: stable in PBS at physiological pH and temperature for up to three hours | increase of α-amylase enzyme activity [3]: 35% | Stern–Volmer constant KSV [1]: 248900 M⁻¹ | decrease of BSA fluorescence intensity [1]: ~80% | Kq(2b)/Kq(1b) [1, 4]: 4 and 4.14 | collision quenching constant Kq (Kq = Ksv/τ0) [1]: 2.489e+13 M⁻¹ s⁻¹
